In patent US20150315211A1, “SMALL MOLECULES FOR THE MODULATION OF MCL-1 AND METHODS OF MODULATING CELL DEATH, CELL DIVISION, CELL DIFFERENTIATION AND METHODS OF TREATING DISORDERS” (priority 2010, published 2015):
Where two headings read alike, the source gives them in different places.

Experiments:
[1] = target: T1, MCL-1ΔNΔC (Homo sapiens, UniProt Q07820); details: pre-incubation, re-concentration, FP with FITC-BID BH3
Method: A small sample was taken as a pre-dilution control. Compound-treated protein and unmodified protein were then diluted to a volume of 20 mL, and subsequently re-concentrated to 500 mL using 10K centrifugal filter units (Amicon). FP binding analysis was performed as described above by adding serial dilutions of compound-modified MCL-1 and unmodified MCL-1, both before and after dilution, followed by FITC-BID BH3 (15 nM) to a 96-well black flat bottom plate (Costar). FP measurements and analyses are then performed as described above.
Briefly, MCL-1ΔNΔC was pre-incubated with the small molecule inhibitors prior to dilution with buffer. The solution was concentrated to its original volume and fluorescence polarization was performed. Compounds that bind covalently will remain bound to the protein, whereas compounds that bind reversibly will be exchanged upon dilution.

[2] = target: BCL-XLΔC (Homo sapiens, UniProt Q07817); test: High-throughput competitive FP binding screen, FITC-BAD BH3/BCL-XLΔC interaction
[3] = target: T1, MCL-1ΔNΔC; test: High-throughput competitive FP binding screen, FITC-MCL-1 SAHB/MCL-1ΔNΔC interaction; parameters: the C-terminal alpha-helix was deleted from each of these constructs; GST (N, cleaved yes); made in house
[4] = test system: MCL-1ΔNΔC; test: as above
[5] = FITC-BAD BH3/BCL-XLΔC interaction pair, competitive FP screen
[6] = FITC-MCL-1 SAHB/MCL-1ΔNΔC interaction pair, competitive FP screen
[7] = selectivity for MCL-1ΔNΔC over BCL-XLΔC targeting (BCL-XL % Bound minus MCL-1 % Bound)

T1 sequence (Q07820 172-320 limits assumed, stated change not applied): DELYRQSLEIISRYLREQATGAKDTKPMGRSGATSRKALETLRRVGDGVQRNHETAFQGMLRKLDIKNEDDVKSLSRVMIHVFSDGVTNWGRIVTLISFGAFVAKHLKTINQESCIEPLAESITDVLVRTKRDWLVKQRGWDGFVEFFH
BCL-XLΔC, sequence (Q07817 1-212 limits assumed, stated change not applied): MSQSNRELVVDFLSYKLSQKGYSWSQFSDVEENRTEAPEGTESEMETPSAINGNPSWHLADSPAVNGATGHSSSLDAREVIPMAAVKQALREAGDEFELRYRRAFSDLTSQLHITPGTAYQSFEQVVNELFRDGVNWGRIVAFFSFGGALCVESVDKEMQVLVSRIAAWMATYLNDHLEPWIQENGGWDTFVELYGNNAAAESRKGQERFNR

Structure (SMILES)	mechanism of binding to MCL-1ΔNΔC upon dilution (reversible vs covalent) [1]	BCL-XL % Bound [2] [%]	MCL-1% Bound [3] [%]	Spec Values [4]	BCL-XL % Bound [2, 5] [%]	MCL-1% Bound [3, 6] [%]	Spec Values [4, 7]
Cc1cc2c(C(C)C)c(O)c(O)c(C=O)c2c(O)c1-c1c(C)cc2c(C(C)C)c(O)c(O)c(C=O)c2c1O [Gossypol]	bound reversibly						
O=C1NC(=O)N(CCC2=CCCCC2)C(=O)/C1=C/c1cnc(-c2ccccc2)nc1 [drawing 98]		106.9	43.51	63.4			
CCOc1cc(C(Nc2cccnc2)c2ccc3cccnc3c2O)ccc1O (stereo not shown) [drawing 145]					108.4	−0.3	108.7
Cc1cc2c(C(C)C)c(O)c(O)c(C=O)c2c(O)c1-c1c(C)cc2c(C(C)C)c(O)c(O)c(C=O)c2c1O [drawing 158]		101	3.955	97.07			
O=c1cc(-c2ccccc2)oc2cc(O)c(O)c(O)c12 [drawing 161]					104.2	10.32	93.84
O=c1c(O)c(-c2ccc(O)c(O)c2)oc2cc(O)cc(O)c12 [drawing 167]					105.3	16.69	88.65
O=c1c(O)c(-c2ccc(O)c(O)c2)oc2cc(O)cc(O)c12 [drawing 172]					92.49	9.24	83.25
O=C(OCC1O[C@H](OC(=O)c2cc(O)c(O)c(OC(=O)c3cc(O)c(O)c(O)c3)c2)[C@H](OC(=O)c2cc(O)c(O)c(OC(=O)c3cc(O)c(O)c(O)c3)c2)[C@@H](OC(=O)c2cc(O)c(O)c(OC(=O)c3cc(O)c(O)c(O)c3)c2)[C@@H]1OC(=O)c1cc(O)c(O)c(OC(=O)c2cc(O)c(O)c(O)c2)c1)c1cc(O)c(O)c(OC(=O)c2cc(O)c(O)c(O)c2)c1 (stereo partly shown) [drawing 178]					98.26	15.94	82.32
CC1=C(C#N)C(=O)N=C(O)/C1=C\c1ccc(-c2ccc(S(N)(=O)=O)cc2)o1 [drawing 191]					98.2	21.8	76.4
CC1=C(C#N)C(=O)N=C(O)/C1=C\c1ccc(-c2ccc(S(N)(=O)=O)cc2)o1 [drawing 192]					93.7	17.4	76.4
COc1ccc(N(C)C(=S)Nc2ccc3nc(-c4ccco4)c(-c4ccco4)nc3c2)cc1 [drawing 205]					81.17	8.322	72.84
O=c1c(O)c(-c2cc(O)c(O)c(O)c2)oc2cc(O)cc(O)c12 [drawing 222]					102.4	34.13	68.23
N#C/C(=C\c1ccc(O)c(O)c1)C(N)=S [drawing 231]		100.8	34.55	66.21			
O=C1NC(=O)N(CCC2=CCCCC2)C(=O)/C1=C/c1cnc(-c2ccccc2)nc1 [drawing 249]		106.9	43.51	63.4			
CC1=NOC(=O)/C1=C/c1ccc(-c2ccc(Cl)cc2)o1 [drawing 255]		101.5	38.47	62.98			
Oc1c(Cl)cc(Cl)c(Cl)c1Cc1c(O)c(Cl)cc(Cl)c1Cl [drawing 274]		100.4	41.01	59.35			
COc1ccc2c(c1)CC[C@@H]1C2CC[C@@]2(C)C1CC[C@@H]2NCCCCCCN1C(=O)CCC1=O (stereo partly shown) [drawing 365]					106.3	56.6	49.67
